Experimental data from ChEMBL document CHEMBL6127143, “From Virtual Screens to Cellular Target Engagement: New Small Molecule Ligands for the Immune Checkpoint LAG-3” (ACS Med Chem Lett, 2024).

Test system: Raji
Assay: Cytotoxicity against human Raji cells expressing human LAG3 assessed as reduction in cell viability incubated for 1 hrs by trypan blue staining based analysis
Assay type: toxicity

Compound | Activity
O=C(O)c1cccc(C(=O)NC2CCN(c3ccc(C(F)(F)F)cn3)CC2)c1 | Non-Toxic
Cc1nc(C(F)(F)F)nc(-c2cc(NCCN(C)C)nc3[nH]ccc23)c1C | Non-Toxic
